Source: the CheMixHub viscosity set
Values joined by “and” are separate entries in the source; they are usually repeats but may differ in a detail not shown here. Identical values can stand only once.

Experiment: xn = mol fraction of the nth substance listed

COCCOC + CO
298.15 K, 101 kPa
Conditions	viscosity [mPa·s]
x1 = 0.03801	0.5333
x1 = 0.08163	0.5252
x1 = 0.1322	0.5142
x1 = 0.1916	0.4946
x1 = 0.2623	0.479
x1 = 0.3478	0.4627
x1 = 0.4534	0.4496
x1 = 0.5871	0.4355
x1 = 0.7619	0.4209

CCC(C)=O + Cc1ccccc1
viscosity, 101 kPa
Conditions	298.15 K	303.15 K	308.15 K
x1 = 0.1009	–	0.516 mPa·s	–
x1 = 0.2412	–	0.496 mPa·s	–
x1 = 0.3948	–	0.475 mPa·s	–
x1 = 0.524	–	0.458 mPa·s	–
x1 = 0.7006	–	0.431 mPa·s	–
x1 = 0.8899	–	0.397 mPa·s	–
x2 = 0.0856	0.4052 mPa·s and 0.4052 mPa·s	0.3822 mPa·s and 0.3822 mPa·s	0.3593 mPa·s and 0.3593 mPa·s
x2 = 0.1724	0.4244 mPa·s and 0.4244 mPa·s	0.3996 mPa·s and 0.3996 mPa·s	0.3756 mPa·s and 0.3756 mPa·s
x2 = 0.2624	0.4439 mPa·s and 0.4439 mPa·s	0.4176 mPa·s and 0.4176 mPa·s	0.3922 mPa·s and 0.3922 mPa·s
x2 = 0.337	0.4594 mPa·s and 0.4594 mPa·s	0.432 mPa·s and 0.432 mPa·s	0.4061 mPa·s and 0.4061 mPa·s
x2 = 0.433	0.4781 mPa·s and 0.4781 mPa·s	0.4494 mPa·s and 0.4494 mPa·s	0.423 mPa·s and 0.423 mPa·s
x2 = 0.5555	0.4987 mPa·s and 0.4987 mPa·s	0.4688 mPa·s and 0.4688 mPa·s	0.4417 mPa·s and 0.4417 mPa·s
x2 = 0.66	0.5145 mPa·s and 0.5145 mPa·s	0.4844 mPa·s and 0.4844 mPa·s	0.4575 mPa·s and 0.4575 mPa·s
x2 = 0.769	0.5308 mPa·s and 0.5308 mPa·s	0.5002 mPa·s and 0.5002 mPa·s	0.4738 mPa·s and 0.4738 mPa·s
x2 = 0.8831	0.5472 mPa·s and 0.5472 mPa·s	0.5168 mPa·s and 0.5168 mPa·s	0.4909 mPa·s and 0.4909 mPa·s

COCCOC + O=Cc1ccccc1
298.15 K, 101 kPa
Conditions	viscosity [mPa·s]
x1 = 0.1157	1.225
x1 = 0.2274	1.082
x1 = 0.3354	0.954
x1 = 0.4398	0.841
x1 = 0.5408	0.741
x1 = 0.6385	0.655
x1 = 0.7332	0.58
x1 = 0.8249	0.515
x1 = 0.9138	0.458

COC(C)=O + c1ccccc1
101 kPa
Conditions	viscosity [mPa·s]
293.15 K, x1 = 0.5	0.48
298.15 K, x1 = 0.0436	0.587
298.15 K, x1 = 0.1504	0.55
298.15 K, x1 = 0.2504	0.52
298.15 K, x1 = 0.3483	0.494
298.15 K, x1 = 0.441	0.472
298.15 K, x1 = 0.4878	0.462
298.15 K, x1 = 0.5512	0.449
298.15 K, x1 = 0.6492	0.431
298.15 K, x1 = 0.7483	0.415
298.15 K, x1 = 0.8514	0.401
298.15 K, x1 = 0.9486	0.389
298.15 K, x2 = 0.1115	0.363
298.15 K, x2 = 0.1916	0.374
298.15 K, x2 = 0.293	0.388
298.15 K, x2 = 0.3964	0.407
298.15 K, x2 = 0.4965	0.429
298.15 K, x2 = 0.6017	0.454
298.15 K, x2 = 0.6991	0.482
298.15 K, x2 = 0.7955	0.512
298.15 K, x2 = 0.8946	0.548
303.15 K, x1 = 0.5	0.428
308.15 K, x1 = 0.0436	0.513
308.15 K, x1 = 0.1504	0.485
308.15 K, x1 = 0.2504	0.461
308.15 K, x1 = 0.3483	0.441
308.15 K, x1 = 0.441	0.423
308.15 K, x1 = 0.4878	0.415
308.15 K, x1 = 0.5	0.406
308.15 K, x1 = 0.5512	0.405
308.15 K, x1 = 0.6492	0.39
308.15 K, x1 = 0.7483	0.377
308.15 K, x1 = 0.8514	0.365
308.15 K, x1 = 0.9486	0.356
313.15 K, x2 = 0.1115	0.321
313.15 K, x2 = 0.1916	0.33
313.15 K, x2 = 0.293	0.339
313.15 K, x2 = 0.3964	0.354
313.15 K, x2 = 0.4965	0.37
313.15 K, x2 = 0.6017	0.388
313.15 K, x2 = 0.6991	0.407
313.15 K, x2 = 0.7955	0.429
313.15 K, x2 = 0.8946	0.455

CCC(C)=O + CC(C)CO
viscosity [mPa·s], 101.3 kPa
Conditions	x2 = 0.0854	x2 = 0.1986	x2 = 0.3001	x2 = 0.3904	x2 = 0.4974	x2 = 0.5941	x2 = 0.6983	x2 = 0.7991	x2 = 0.8965
298.15 K	0.423	0.477	0.538	0.613	0.734	0.885	1.13	1.5	2.115
308.15 K	0.38	0.426	0.476	0.535	0.63	0.748	0.933	1.206	1.637
318.15 K	0.344	0.382	0.424	0.473	0.548	0.64	0.781	0.983	1.289
